Assays:
Dirofilaria immitis = assay: Effect test on Dirofilaria immitis (larval motility inhibition); conditions: 168 h, read-out: motility inhibition rate
Plutella xylostella = assay: Insecticidal test against Plutella xylostella; conditions: in Brassica rapa, 144 h, read-out: corrected mortality (%), assessment
Text: Six days after the immersion in the drug solution, the number of surviving insects was examined.

Structure (SMILES) | inhibition at 100 µM (Dirofilaria immitis) [%] | mortality at 500 µg/mL (Plutella xylostella) [%]
O=C1CC(c2ccc(C(F)(F)F)cc2)C(c2ccccn2)C(=O)C1=C(Nc1ccc(F)cc1)Nc1ccc(F)nc1 (centres unmarked) [1-73] | ≥ 50 | 
Cn1nc(-c2ccccc2)c(C2CC(=O)C(=C(Nc3ccc(F)cc3)Nc3ccc(F)nc3)C(=O)C2)c1Cl (centres unmarked) [1-79] | ≥ 50 | 
Cn1nc(-c2ccccc2)c(C2CC(=O)C(=C(Nc3ccc(F)cc3)Nc3ccc(F)cc3)C(=O)C2)c1Cl (centres unmarked) [1-80] | ≥ 50 | 
CNC(Nc1ccc(F)cc1)=C1C(=O)CC(c2c(-c3ccccc3)nn(C)c2Cl)CC1=O (centres unmarked) [1-82] | ≥ 50 | 
C=CCNC(Nc1ccc(F)cc1)=C1C(=O)CC(c2cnc(C)o2)CC1=O (centres unmarked) [1-115] | ≥ 50 | 100
O=C1CC(c2ccc(C(F)(F)F)cc2)CC(=O)C1=C(Nc1ccc(F)nc1)Nc1cccnn1 (centres unmarked) [1-116] | ≥ 50 | 100
CNC(Nc1ccn(C)n1)=C1C(=O)CC(c2ccc(C(F)(F)F)cc2)CC1=O (centres unmarked) [1-117] | ≥ 50 | 
COc1ncccc1NC(Nc1cccnc1OC)=C1C(=O)CC(c2ccc(C(F)(F)F)cc2)CC1=O (centres unmarked) [1-118] | ≥ 50 | 
O=C1CC(c2ccc(C(F)(F)F)nc2)OC(=O)C1=C(Nc1ccnc(F)c1)Nc1ccnc(F)c1 (centres unmarked) [2-1] | ≥ 50 | 
O=C1CC(c2ccc(C(F)(F)F)nc2)OC(=O)C1=C(Nc1ccc(F)cn1)Nc1ccc(F)cn1 (centres unmarked) [2-2] | ≥ 50 | 
O=C1CC(c2ccc(C(F)(F)F)nc2)OC(=O)C1=C(Nc1ccc(F)nc1)Nc1ccc(F)nc1 (centres unmarked) [2-3] | ≥ 50 | 
CCC1(c2ccc(C(F)(F)F)cc2)CN(C)C(=O)C(=C(NC)Nc2ccc(F)nc2)C1=O (centres unmarked) [3-8] | ≥ 50 | 
CCC1(c2ccc(C(F)(F)F)cc2)CN(C)C(=O)C(=C(Nc2ccc(F)cc2)Nc2ccc(F)nc2)C1=O (centres unmarked) [3-9] | ≥ 50 | 
CCC1(c2ccc(C(F)(F)F)cc2)CN(C)C(=O)C(=C(Nc2ccc(F)nc2)Nc2ccc(F)nc2)C1=O (centres unmarked) [3-10] | ≥ 50 | 
CNC(Nc1ccc(F)nc1)=C1C(=O)CC(c2cc(OC(F)F)n(C)n2)NC1=O (centres unmarked) [3-20] | ≥ 50 | 
O=C1CC(c2nc(-c3ccc(F)cc3)cs2)NC(=O)C1=C(Nc1ccc(F)cc1)Nc1ccc(F)nc1 (centres unmarked) [3-24] | ≥ 50 | 100
O=C1CC(c2nc(-c3ccc(F)cc3)cs2)NC(=O)C1=C(Nc1ccc(F)nc1)Nc1ccc(F)nc1 (centres unmarked) [3-25] | ≥ 50 | 100
CC(C)(C)OC(=O)C1CC(=O)C(=C(Nc2ccc(F)cc2)Nc2ccc(F)nc2)C(=O)N1 (centres unmarked) [3-39] | ≥ 50 | 100

Structure (SMILES) | inhibition at 100 µM (Dirofilaria immitis) [%] | mortality at 500 µg/mL (Plutella xylostella) [%]
O=C1CC(c2cnc(Cl)c(Br)c2)NC(=O)C1=C(Nc1ccc(F)cc1)Nc1ccc(F)nc1 (centres unmarked) [3-43] | ≥ 50 | 
CCCNC(Nc1ccc(F)cc1)=C1C(=O)CN(c2ccc(C#N)cn2)CC1=O [4-3] | ≥ 50 | 100
CNC(Nc1ccc(F)cc1)=C1C(=O)CCCN(c2ccc(C(F)(F)F)cc2)C1=O [5-2] | ≥ 50 | 
CNC(Nc1ccc(F)cc1)=C1C(=O)CN(c2cnc(C#N)c(OC)c2)N(C(=O)OC)C1=O [6-21] | ≥ 50 | 
CNC(Nc1ccc(F)cc1)=C1C(=O)CN(c2ccc(C#N)nc2)N(Cc2ccccc2)C1=O [6-27] | ≥ 50 | 
CCOC(=O)N1C(=O)C(=C(NC)Nc2ccc(F)c(F)c2)C(=O)CN1c1ccc(C#N)c(F)c1 [6-29] | ≥ 50 | 
CCOC(=O)N1C(=O)C(=C(NCc2cccc(F)c2)Nc2cccc(F)c2)C(=O)CN1c1ccc(C#N)c(Cl)c1 [6-31] | ≥ 50 | 
CNC(Nc1ccc(F)cc1)=C1C(=O)CN(c2ccccc2)N(c2ccccc2)C1=O [6-35] | ≥ 50 | 
CNC(Nc1ccc(F)cc1)=C1C(=O)CN(c2cnc(C#N)c(Cl)c2)N(C)C1=O [6-44] | ≥ 50 | 
CSC(Nc1ccc(F)nc1)=C1C(=O)CC(c2ccc(Br)s2)NC1=O (centres unmarked) [9-33] | ≥ 50 | 
CSC(Nc1ccc(F)nc1)=C1C(=O)CCN(c2ccc(C(F)(F)F)cc2)C1=O [9-34] | ≥ 50 | 
CCC1(c2ccc(C(F)(F)F)nc2)CN(C)C(=O)C(=C(Nc2ccc(F)nc2)SC)C1=O (centres unmarked) [9-37] | ≥ 50 | 
CCC1(c2ccc3ccccc3n2)CN(C)C(=O)C(=C(Nc2ccc(F)nc2)SC)C1=O (centres unmarked) [9-38] | ≥ 50 | 
O=C1CC(c2ccc(C(F)(F)F)cc2)CC(=O)C1=C(Nc1ccc(F)cc1)Nc1ccc(F)cc1 (centres unmarked) [compound No. 1-9, 2-(bis((4-fluorophenyl)amino)methylene)-5-(4-(trifluoromethyl)phenyl)cyclohexane-1,3-dione] | ≥ 50 | 
CNC(Nc1ccc(F)cc1)=C1C(=O)CC(c2ccc(C(F)(F)F)cc2)N(C)C1=O (centres unmarked) [compound No. 3-1, 3-(((4-fluorophenyl)amino) (methylamino)methylene)-1-methyl-6-(4-(trifluoromethyl)phenyl)piperidine-2,4-dione] | ≥ 50 | 
CCC1(c2ccc(C(F)(F)F)nc2)CN(C)C(=O)C(=C(NC)Nc2ccc(F)cc2)C1=O (centres unmarked) [compound No. 3-2] | ≥ 50 | 
CNC(Nc1ccc(F)cc1)=C1C(=O)CN(c2ccc(C#N)cn2)CC1=O [compound No. 4-1] | ≥ 50 | 100
CSC(Nc1ccc(F)nc1)=C1C(=O)CC(c2ccc(C(F)(F)F)cc2)CC1=O (centres unmarked) [compound No. 9-1] | ≥ 50 | 100
